Test results as given in PubChem BioAssay AID1259407 (Chemical Carcinogenesis Research Information System (CCRIS), 2018).
Calls of active or inactive are those of the source. How the calls were made is not given here.

Tested on: CCRIS mutagenicity, Ames/micronucleus/aberration tests
Experiment: CCRIS mutagenicity studies

In the case of O=C(O)CN(CC(=O)O)CC(=O)O, the mutagenic call (Test System: AMES SALMONELLA TYPHIMURIUM, Strain/Indicator: TA1535, Metabolic Activation: NONE, Method: STANDARD PLATE) is reported as “inactive; negative”, the mutagenic call (Test System: AMES SALMONELLA TYPHIMURIUM, Strain/Indicator: TA1535, Metabolic Activation: NONE, Method: SUSPENSION/PLATE) is reported as “inactive; negative” and the mutagenic call (Test System: AMES SALMONELLA TYPHIMURIUM, Strain/Indicator: TA1535, Metabolic Activation: RAT, LIVER, S-9, AROCLOR 1254 (10 OR 30%), Method: PREINCUBATION) is reported as “inactive; negative”. The mutagenic call (Test System: AMES SALMONELLA TYPHIMURIUM, Strain/Indicator: TA1535, Metabolic Activation: RAT, LIVER, S-9, AROCLOR 1254, Method: STANDARD PLATE) was “inactive; negative”, the mutagenic call (Test System: AMES SALMONELLA TYPHIMURIUM, Strain/Indicator: TA1535, Metabolic Activation: RAT, LIVER, S-9, Method: STANDARD PLATE) was “inactive; negative” and the mutagenic call (Test System: AMES SALMONELLA TYPHIMURIUM, Strain/Indicator: TA1537, Metabolic Activation: HAMSTER, LIVER, S-9, AROCLOR 1254 (10 OR 30%), Method: PREINCUBATION) was “inactive; negative”. The mutagenic call (Test System: AMES SALMONELLA TYPHIMURIUM, Strain/Indicator: TA1537, Metabolic Activation: HAMSTER, LIVER, S-9, AROCLOR 1254, Method: STANDARD PLATE) was “inactive; negative”, the mutagenic call (Test System: AMES SALMONELLA TYPHIMURIUM, Strain/Indicator: TA1537, Metabolic Activation: HAMSTER, LIVER, S-9, Method: STANDARD PLATE) was “inactive; negative” and the mutagenic call (Test System: AMES SALMONELLA TYPHIMURIUM, Strain/Indicator: TA1537, Metabolic Activation: MOUSE, LIVER, S-9, AROCLOR 1254, Method: STANDARD PLATE) was “inactive; negative”. For the same compound, the mutagenic call (Test System: AMES SALMONELLA TYPHIMURIUM, Strain/Indicator: TA1537, Metabolic Activation: MOUSE, LIVER, S-9, Method: STANDARD PLATE) was “inactive; negative”, the mutagenic call (Test System: AMES SALMONELLA TYPHIMURIUM, Strain/Indicator: TA1537, Metabolic Activation: NONE, Method: PREINCUBATION) was “inactive; negative” and the mutagenic call (Test System: AMES SALMONELLA TYPHIMURIUM, Strain/Indicator: TA1537, Metabolic Activation: NONE, Method: STANDARD PLATE) was “inactive; negative”. The mutagenic call (Test System: AMES SALMONELLA TYPHIMURIUM, Strain/Indicator: TA1537, Metabolic Activation: NONE, Method: SUSPENSION/PLATE) was “inactive; negative”, the mutagenic call (Test System: AMES SALMONELLA TYPHIMURIUM, Strain/Indicator: TA1537, Metabolic Activation: RAT, LIVER, S-9, AROCLOR 1254 (10 OR 30%), Method: PREINCUBATION) was “inactive; negative” and the mutagenic call (Test System: AMES SALMONELLA TYPHIMURIUM, Strain/Indicator: TA1537, Metabolic Activation: RAT, LIVER, S-9, AROCLOR 1254, Method: STANDARD PLATE) was “inactive; negative”. The mutagenic call (Test System: AMES SALMONELLA TYPHIMURIUM, Strain/Indicator: TA1537, Metabolic Activation: RAT, LIVER, S-9, Method: STANDARD PLATE) was “inactive; negative”, the mutagenic call (Test System: AMES SALMONELLA TYPHIMURIUM, Strain/Indicator: TA1538, Metabolic Activation: HAMSTER, LIVER, S-9, AROCLOR 1254, Method: STANDARD PLATE) was “inactive; negative” and the mutagenic call (Test System: AMES SALMONELLA TYPHIMURIUM, Strain/Indicator: TA1538, Metabolic Activation: HAMSTER, LIVER, S-9, Method: STANDARD PLATE) was “inactive; negative”. The mutagenic call (Test System: AMES SALMONELLA TYPHIMURIUM, Strain/Indicator: TA1538, Metabolic Activation: MOUSE, LIVER, S-9, AROCLOR 1254, Method: STANDARD PLATE) was “inactive; negative”, the mutagenic call (Test System: AMES SALMONELLA TYPHIMURIUM, Strain/Indicator: TA1538, Metabolic Activation: MOUSE, LIVER, S-9, Method: STANDARD PLATE) was “inactive; negative” and the mutagenic call (Test System: AMES SALMONELLA TYPHIMURIUM, Strain/Indicator: TA1538, Metabolic Activation: NONE, Method: STANDARD PLATE) was “inactive; negative”. The mutagenic call (Test System: AMES SALMONELLA TYPHIMURIUM, Strain/Indicator: TA1538, Metabolic Activation: RAT, LIVER, S-9, AROCLOR 1254, Method: STANDARD PLATE) was “inactive; negative”, the mutagenic call (Test System: AMES SALMONELLA TYPHIMURIUM, Strain/Indicator: TA1538, Metabolic Activation: RAT, LIVER, S-9, Method: STANDARD PLATE) was “inactive; negative” and the mutagenic call (Test System: Ames Salmonella typhimurium, Strain/Indicator: TA98, Metabolic Activation: None, Method: Plate incorporation) was “inactive; negative”. The mutagenic call (Test System: Ames Salmonella typhimurium, Strain/Indicator: TA98, Metabolic Activation: Rat, Kidney, S9, Aroclor 1254 with NADP, Method: Preincubation) was “inactive; negative”, the mutagenic call (Test System: Ames Salmonella typhimurium, Strain/Indicator: TA98, Metabolic Activation: Rat, Kidney, S9, Aroclor 1254 with arachidonic acid instead of NADP, Method: Preincubation) was “inactive; negative” and the mutagenic call (Test System: Ames Salmonella typhimurium, Strain/Indicator: TA98, Metabolic Activation: Rat, Liver, S9, Aroclor 1254, Method: Preincubation) was “inactive; negative”. For the same compound, the mutagenic call (Test System: Ames Salmonella typhimurium, Strain/Indicator: TA100, Metabolic Activation: None, Method: Plate incorporation) was “inactive; negative”, the mutagenic call (Test System: Ames Salmonella typhimurium, Strain/Indicator: TA100, Metabolic Activation: Rat, Kidney, S9, Aroclor 1254 with NADP, Method: Preincubation) was “inactive; negative” and the mutagenic call (Test System: Ames Salmonella typhimurium, Strain/Indicator: TA100, Metabolic Activation: Rat, Kidney, S9, Aroclor 1254 with arachidonic acid instead of NADP, Method: Preincubation) was “inactive; negative”. The mutagenic call (Test System: Ames Salmonella typhimurium, Strain/Indicator: TA100, Metabolic Activation: Rat, Liver, S9, Aroclor 1254, Method: Preincubation) was “inactive; negative”, the mutagenic call (Test System: Ames Salmonella typhimurium, Strain/Indicator: TA102, Metabolic Activation: None, Method: Plate incorporation) was “inactive; negative. significant decrease at three highest doses” and the mutagenic call (Test System: Ames Salmonella typhimurium, Strain/Indicator: TA102, Metabolic Activation: Rat, Kidney, S9, Aroclor 1254 with NADP, Method: Preincubation) was “inactive; negative”. For the same compound, the mutagenic call (Test System: Ames Salmonella typhimurium, Strain/Indicator: TA102, Metabolic Activation: Rat, Kidney, S9, Aroclor 1254 with arachidonic acid instead of NADP, Method: Preincubation) was “inactive; negative”, the mutagenic call (Test System: Ames Salmonella typhimurium, Strain/Indicator: TA102, Metabolic Activation: Rat, Liver, S9, Aroclor 1254, Method: Preincubation) was “inactive; negative” and the mutagenic call (Test System: Ames Salmonella typhimurium, Strain/Indicator: TA1537, Metabolic Activation: None, Method: Plate incorporation) was “inactive; negative”. The mutagenic call (Test System: Ames Salmonella typhimurium, Strain/Indicator: TA1537, Metabolic Activation: Rat, Kidney, S9, Aroclor 1254 with NADP, Method: Preincubation) was “inactive; negative”, the mutagenic call (Test System: Ames Salmonella typhimurium, Strain/Indicator: TA1537, Metabolic Activation: Rat, Kidney, S9, Aroclor 1254 with arachidonic acid instead of NADP, Method: Preincubation) was “inactive; negative” and the mutagenic call (Test System: Ames Salmonella typhimurium, Strain/Indicator: TA1537, Metabolic Activation: Rat, Liver, S9, Aroclor 1254, Method: Preincubation) was “inactive; negative”. The mutagenic call (Test System: E. COLI, Strain/Indicator: WP2 UVRA, Metabolic Activation: HAMSTER, LIVER, S-9, AROCLOR 1254, Method: STANDARD PLATE) was “inactive; negative”, the mutagenic call (Test System: E. COLI, Strain/Indicator: WP2 UVRA, Metabolic Activation: HAMSTER, LIVER, S-9, Method: STANDARD PLATE) was “inactive; negative” and the mutagenic call (Test System: E. COLI, Strain/Indicator: WP2 UVRA, Metabolic Activation: MOUSE, LIVER, S-9, AROCLOR 1254, Method: STANDARD PLATE) was “inactive; negative”. The mutagenic call (Test System: E. COLI, Strain/Indicator: WP2 UVRA, Metabolic Activation: MOUSE, LIVER, S-9, Method: STANDARD PLATE) was “inactive; negative”, the mutagenic call (Test System: E. COLI, Strain/Indicator: WP2 UVRA, Metabolic Activation: NONE, Method: STANDARD PLATE) was “inactive; negative” and the mutagenic call (Test System: E. COLI, Strain/Indicator: WP2 UVRA, Metabolic Activation: RAT, LIVER, S-9, AROCLOR 1254, Method: STANDARD PLATE) was “inactive; negative”. For the same compound, the mutagenic call (Test System: E. COLI, Strain/Indicator: WP2 UVRA, Metabolic Activation: RAT, LIVER, S-9, Method: STANDARD PLATE) was “inactive; negative”, the mutagenic call (Test System: MOUSE LYMPHOMA, Strain/Indicator: L5178Y (TK+/TK-), Metabolic Activation: NONE, Method: SUSPENSION/PLATE) was “inactive; negative” and the mutagenic call (Test System: MOUSE LYMPHOMA, Strain/Indicator: L5178Y (TK+/TK-), Metabolic Activation: RAT, LIVER, S-9, AROCLOR 1254, Method: SUSPENSION/PLATE) was “inactive; negative”. The mutagenic call (Test System: MOUSE LYMPHOMA, Strain/Indicator: L5178Y (TK+/TK-), Metabolic Activation: RAT, LIVER, S-9, Method: SUSPENSION/PLATE) was “inactive; negative” and the mutagenic call (Test System: Mouse lymphoma, Strain/Indicator: L5178Y (tk+/tk-), Metabolic Activation: None, Method: Microwell) was “active; positive. small colonies only”.
